# pIC50: −log10 of the molar value.
# Biological target: recombinant HCV NS5B (Hepatitis C virus genotype 1b, UniProt P26663)
# Test: biochemical
# Details: flashplate, polyrA/biotinylated-oligo dT, 100 nM NS5B, 2 hrs at room temperature; read-out: RNA pol Assay 2 IC50 (μm)
# Description: In vitro HCV RdRp Flashplate Scintillation Proximity Assay (Strep-Flash Assay) Used to Evaluate Analogues:
# In brief, a 400 ng/μl polyrA solution (Amersham Pharmacia Biotech) was mixed volume-to-volume with 5′ biotin-oligo dT12 at 20 pmol/μl. The template and primers were denatured at 95 C for 5 minutes then incubated at 37 C for 10 minutes. Annealed template-primers were subsequently diluted in a Tris-HCl containing buffer and allowed to bind to streptavidin-coated flashplates overnight.
# recombinant HCV NS5B, sequence (P26663 2420-3010 limits assumed): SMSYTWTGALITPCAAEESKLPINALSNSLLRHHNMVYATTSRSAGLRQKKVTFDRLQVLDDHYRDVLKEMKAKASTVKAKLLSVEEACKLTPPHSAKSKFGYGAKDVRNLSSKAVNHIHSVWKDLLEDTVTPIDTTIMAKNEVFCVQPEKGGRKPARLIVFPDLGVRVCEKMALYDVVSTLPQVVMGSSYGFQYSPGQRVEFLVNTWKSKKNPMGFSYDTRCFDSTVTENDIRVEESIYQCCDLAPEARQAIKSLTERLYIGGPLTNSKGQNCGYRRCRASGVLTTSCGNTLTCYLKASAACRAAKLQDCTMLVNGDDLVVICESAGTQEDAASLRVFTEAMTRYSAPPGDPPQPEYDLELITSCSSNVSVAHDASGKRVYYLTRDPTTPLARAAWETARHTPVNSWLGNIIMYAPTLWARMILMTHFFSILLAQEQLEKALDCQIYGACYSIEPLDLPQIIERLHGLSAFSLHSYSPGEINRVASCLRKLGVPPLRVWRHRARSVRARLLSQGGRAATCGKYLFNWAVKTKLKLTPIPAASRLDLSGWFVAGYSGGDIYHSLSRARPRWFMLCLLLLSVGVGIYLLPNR
row,pIC50,Compound
1,> 5.30,"N#Cc1cccc(-c2ccc(CN(C(=O)c3ccc(Cl)cc3Cl)[C@@H](Cc3ccccc3)C(=O)O)o2)c1 [Compound #119, 2-[[5-(3-Cyano-phenyl)-furan-2-ylmethyl]-(2,4-dichloro-benzoyl)-amino]-3-phenyl-propionic acid]"
2,> 5.30,"Cc1ccc(C(=O)N(Cc2cc(-c3ccc(F)c(Cl)c3)cs2)[C@@H](Cc2ccccc2)C(=O)O)c(C)c1 [Compound #192, 2-[[4-(3-Chloro-4-fluoro-phenyl)-thiophen-2-ylmethyl]-(2,4-dimethyl-benzoyl)-amino]-3-phenyl-propionic acid]"
3,> 5.30,"O=C(O)c1cccc(CN(C(=O)c2ccc(Cl)cc2Cl)[C@@H](Cc2ccccc2)C(=O)O)c1 [Compound #193, 3-{[(1-Carboxy-2-phenyl-ethyl)-(2,4-dichloro-benzoyl)-amino]-methyl}-benzoic acid]"
4,4.70 to 5.30,"Nc1cccc(CN(C(=O)c2ccc(Cl)cc2Cl)[C@@H](Cc2ccccc2)C(=O)O)c1 [Compound #194, 2-[(3-Amino-benzyl)-(2,4-dichloro-benzoyl)-amino]-3-phenyl-propionic acid]"
5,4.70 to 5.30,"O=C(O)[C@@H](Cc1ccccc1)N(Cc1ccccc1)C(=O)c1ccc(Cl)cc1Cl [Compound #199, 2-[Benzyl-(2,4-dichloro-benzoyl)-amino]-3-phenyl-propionic acid]"
6,> 5.30,"O=C(O)C(Cc1ccccc1)N(Cc1cccc(-c2nn[nH]n2)c1)C(=O)c1ccc(Cl)cc1Cl (stereo not shown) [Compound #200, 2-{(2,4-DICHLORO-BENZOYL)-[3-(2H-TETRAZOL-5-YL)-BENZYL]-AMINO}-3-PHENYL-PROPIONIC ACID]"
7,4.70 to 5.30,"O=C(O)[C@H](Cc1ccccc1)N(Cc1ccccc1[N+](=O)[O-])C(=O)c1ccc(Cl)cc1Cl [Compound #201, 2-[(2,4-DICHLORO-BENZOYL)-(2-NITRO-BENZYL)-AMINO]-3-PHENYL-PROPIONIC ACID]"
8,4.70 to 5.30,"O=C(O)[C@H](Cc1ccccc1)N(Cc1ccc([N+](=O)[O-])cc1)C(=O)c1ccc(Cl)cc1Cl [Compound #202, 2-[(2,4-DICHLORO-BENZOYL)-(4-NITRO-BENZYL)-AMINO]-3-PHENYL-PROPIONIC]"
9,4.70 to 5.30,"N#Cc1ccccc1CN(C(=O)c1ccc(Cl)cc1Cl)[C@@H](Cc1ccccc1)C(=O)O [Compound #203, 2-[(2-CYANO-BENZYL)-(2,4-DICHLORO-BENZOYL)-AMINO]-3-PHENYL-PROPIONIC ACID]"
10,4.70 to 5.30,"N#Cc1ccc(CN(C(=O)c2ccc(Cl)cc2Cl)[C@@H](Cc2ccccc2)C(=O)O)cc1 [Compound #204, 2-[(4-CYANO-BENZYL)-(2,4-DICHLORO-BENZOYL)-AMINO]-3-PHENYL-PROPIONIC ACID]"
11,4.70 to 5.30,"CS(=O)(=O)c1cccc(CN(C(=O)c2ccc(Cl)cc2Cl)[C@@H](Cc2ccccc2)C(=O)O)c1 [Compound #208, 2-[(2,4-DICHLORO-BENZOYL)-(3-METHANESULFONYL-BENZYL)-AMINO]-3-PHENYL-PROPIONIC ACID]"
12,> 5.30,"CC(=O)c1cccc(CN(C(=O)c2ccc(Cl)cc2Cl)[C@@H](Cc2ccccc2)C(=O)O)c1 [Compound #209, 2-[(3-ACETYL-BENZYL)-(2,4-DICHLORO-BENZOYL)-AMINO]-3-PHENYL-PROPIONIC ACID]"
13,> 5.30,"O=C(O)[C@H](Cc1ccccc1)N(Cc1ccc[n+]([O-])c1)C(=O)c1ccc(Cl)cc1Cl [Compound #210, 2-[(2,4-DICHLORO-BENZOYL)-(1-OXY-PYRIDIN-3-YLMETHYL)-AMINO]-3-PHENYL-PROPIONIC ACID]"
14,4.70 to 5.30,"O=C(O)[C@H](Cc1ccccc1)N(Cc1ccc(-c2cccc(C(F)(F)F)c2)s1)C(=O)c1ccc(Cl)cc1Cl [Compound #211, 2-{(2,4-Dichloro-benzoyl)-[5-(3-trifluoromethyl-phenyl)-thiophen-2-ylmethyl]-amino}-3-phenyl-propionic acid]"
15,> 5.30,"N#Cc1cccc(CN(C(=O)c2ccc(Cl)cc2Cl)[C@@H](Cc2ccccc2)C(=O)O)c1 [compound #54, (2S)-2-[(3-Cyano-benzyl)-(2,4-dichloro-benzoyl)-amino]-3-phenyl-propionic acid]"
16,> 5.30,"O=C(O)[C@H](Cc1ccccc1)N(Cc1cnc(-c2cccc([N+](=O)[O-])c2)s1)C(=O)c1ccc(Cl)cc1Cl [compound #64, 2-{(2,4-Dichloro-benzoyl)-[2-(3-nitro-phenyl)-thiazol-5-ylmethyl]-amino}-3-phenyl-propionic acid]"
17,> 5.30,"O=C(O)[C@H](Cc1ccccc1)N(Cc1cnc(-c2cc3ccccc3o2)s1)C(=O)c1ccc(Cl)cc1Cl [compound #86, 2-[(2-Benzofuran-2-yl-thiazol-5-ylmethyl)-(2,4-dichloro-benzoyl)-amino]-3-phenyl-propionic acid]"

row,pIC50,Compound
1,> 5.30,"O=C(O)[C@H](Cc1ccccc1)N(Cc1cnc(Cl)s1)C(=O)c1ccc(Cl)cc1Cl [compound #140, (2s)-2-[(2-Chloro-thiazol-5-ylmethyl)-(2,4-dichloro-benzoyl)-amino]-3-phenyl-propionic acid]"
2,> 5.30,"O=C(O)[C@H](Cc1ccccc1)N(Cc1ccc(-c2ccc(F)cc2)s1)C(=O)c1ccc(Cl)cc1Cl [compound #141, (2s)-2-{(2,4-Dichloro-benzoyl)-[5-(4-fluoro-phenyl)-thiophen-2-ylmethyl]-amino}-3-phenyl-propionic acid]"
3,4.70 to 5.30,"O=C(O)[C@H](Cc1ccccc1)N(Cc1sccc1-c1ccc(F)c(Cl)c1)C(=O)c1ccc(Cl)cc1Cl [compound #145, (2s)-2-[[3-(3-Chloro-4-fluoro-phenyl)-thiophen-2-ylmethyl]-(2,4-dichloro-benzoyl)-amino]-3-phenyl-propionic acid]"
4,> 5.30,"O=C(O)[C@H](Cc1ccccc1)N(Cc1sccc1Br)C(=O)c1ccc(Cl)cc1Cl [compound #146, (2s)-2-[(3-Bromo-thiophen-2-ylmethyl)-(2,4-dichloro-benzoyl)-amino]-3-phenyl-propionic acid]"
5,4.70 to 5.30,"CC(C)(C(=O)O)N(Cc1ccc(-c2cccc(C(F)(F)F)c2)o1)C(=O)c1ccc(Cl)cc1Cl [compound #147, (2s)-2-{(2,4-Dichloro-benzoyl)-[5-(3-trifluoromethyl-phenyl)-furan-2-ylmethyl]-amino}-2-methyl-propionic acid]"
6,> 5.30,"O=C(O)[C@H](Cc1ccccc1)N(Cc1cnc(-c2cccc(C(F)(F)F)c2)s1)C(=O)c1ccc(Cl)cc1Cl [compound #148, (2s)-2-{(2,4-Dichloro-benzoyl)-[2-(3-trifluoromethyl-phenyl)-thiazol-5-ylmethyl]-amino}-3-phenyl-propionic acid]"
7,> 5.30,"O=C(O)[C@H](Cc1ccccc1)N(Cc1csc([N+](=O)[O-])c1)C(=O)c1ccc(Cl)cc1Cl [compound #149, (2s)-2-[(2,4-Dichloro-benzoyl)-(5-nitro-thiophen-3-ylmethyl)-amino]-3-phenyl-propionic acid]"
8,> 5.30,"CS(=O)(=O)c1ccc(CN(C(=O)c2ccc(Cl)cc2Cl)[C@@H](Cc2ccccc2)C(=O)O)cc1 [compound #150, (2s)-2-[(2,4-Dichloro-benzoyl)-(4-methanesulfonyl-benzyl)-amino]-3-phenyl-propionic acid]"
9,> 5.30,"COc1cccc(CN(C(=O)c2ccc(Cl)cc2Cl)[C@@H](Cc2ccccc2)C(=O)O)c1 [compound #151, (2s)-2-[(2,4-Dichloro-benzoyl)-(3-methoxy-benzyl)-amino]-3-phenyl-propionic acid]"
10,> 5.30,"Cc1cccc(CN(C(=O)c2ccc(Cl)cc2Cl)[C@@H](Cc2ccccc2)C(=O)O)c1 [compound #152, (2s)-2-[(2,4-Dichloro-benzoyl)-(3-methyl-benzyl)-amino]-3-phenyl-propionic acid]"
11,4.70 to 5.30,"Cn1nc(C(F)(F)F)c(CN(C(=O)c2ccc(Cl)cc2Cl)[C@@H](Cc2ccccc2)C(=O)O)c1Oc1cccc(Cl)c1 [compound #153, (2s)-2-[[5-(3-Chloro-phenoxy)-1-methyl-3-trifluoromethyl-1h-pyrazol-4-ylmethyl]-(2,4-dichloro-benzoyl)-amino]-3-phenyl-propionic acid]"
12,> 5.30,"O=C(O)[C@H](Cc1ccccc1)N(Cc1sccc1-c1cc(F)cc(F)c1)C(=O)c1ccc(Cl)cc1Cl [compound #154, (2s)-2-{(2,4-Dichloro-benzoyl)-[3-(3,5-difluoro-phenyl)-thiophen-2-ylmethyl]-amino}-3-phenyl-propionic acid]"
13,> 5.30,"O=C(O)[C@H](Cc1ccccc1)N(Cc1sccc1-c1ccc(Cl)c(Cl)c1)C(=O)c1ccc(Cl)cc1Cl [compound #155, (2s)-2-{(2,4-Dichloro-benzoyl)-[3-(3,4-dichloro-phenyl)-thiophen-2-ylmethyl]-amino}-3-phenyl-propionic acid]"
14,4.70 to 5.30,"O=C(O)[C@H](Cc1ccccc1)N(Cc1sccc1-c1ccc(Cl)c(F)c1)C(=O)c1ccc(Cl)cc1Cl [compound #156, (2s)-2-[[3-(4-Chloro-3-fluoro-phenyl)-thiophen-2-ylmethyl]-(2,4-dichloro-benzoyl)-amino]-3-phenyl-propionic acid]"
15,4.70 to 5.30,"O=C(O)[C@H](Cc1ccccc1)N(Cc1sccc1-c1ccc(Cl)cc1Cl)C(=O)c1ccc(Cl)cc1Cl [compound #157, (2s)-2-{(2,4-Dichloro-benzoyl)-[3-(2,4-dichloro-phenyl)-thiophen-2-ylmethyl]-amino}-3-phenyl-propionic acid]"
16,> 5.30,"Cc1cccc(-c2ccsc2CN(C(=O)c2ccc(Cl)cc2Cl)[C@@H](Cc2ccccc2)C(=O)O)c1 [compound #158, (2s)-2-[(2,4-Dichloro-benzoyl)-(3-m-tolyl-thiophen-2-ylmethyl)-amino]-3-phenyl-propionic acid]"
17,4.70 to 5.30,"CCOC(=O)c1ccccc1-c1ccsc1CN(C(=O)c1ccc(Cl)cc1Cl)[C@@H](Cc1ccccc1)C(=O)O [compound #159, (2s)-2-(2-{[(1s-1-Carboxy-2-phenyl-ethyl)-(2,4-dichloro-benzoyl)-amino]-methyl}-thiophen-3-yl)-benzoic acid ethyl ester]"

# Source: US20030229053A1, “Compounds and methods for the treatment or prevention of flavivirus infections” (Shire BioChem Inc., priority 2001, published 2003)
